Data reported in patent publication US8192962B2, “Processes for detecting toxic substances” (Daikin Industries, Ltd., priority 2001, dated 2012).

System: Stress protein genes
Experiment: DNA chip mRNA expression in yeast, stress protein genes (Table 6)
Format: cell-based, Saccharomyces cerevisiae S288C
In short: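 Chemical exposure: 2 h, log-phase S. cerevisiae S288C, YPD, 25° C., dose set to inhibit growth without death. Profiling: mRNA labeled by reverse transcription with Cy3- or Cy5-dUTP, hybridized to whole-genome array. Output: fluorescence ratio against untreated culture.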

Compound: CCCCCCCCCCCCc1ccc(S(=O)(=O)[O-])cc1.[Na+] [(17), sodium dodecylbenzosulfonate]
- The level of expressed mRNA in the presence of chemical substance/The level of expressed mRNA in the absence of chemical substance (yeast gene YAL005C): 0.8
- The level of expressed mRNA in the presence of chemical substance/The level of expressed mRNA in the absence of chemical substance (yeast gene YAL015C): 1.1
- The level of expressed mRNA in the presence of chemical substance/The level of expressed mRNA in the absence of chemical substance (yeast gene YBL075C): 1.2
- The level of expressed mRNA in the presence of chemical substance/The level of expressed mRNA in the absence of chemical substance (yeast gene YBL093C): 1.4
- The level of expressed mRNA in the presence of chemical substance/The level of expressed mRNA in the absence of chemical substance (yeast gene YBR044C): 0.9
- The level of expressed mRNA in the presence of chemical substance/The level of expressed mRNA in the absence of chemical substance (yeast gene YBR054W): 0.7
- The level of expressed mRNA in the presence of chemical substance/The level of expressed mRNA in the absence of chemical substance (yeast gene YBR067C): 0.5
- The level of expressed mRNA in the presence of chemical substance/The level of expressed mRNA in the absence of chemical substance (yeast gene YBR072W): 1.8
- The level of expressed mRNA in the presence of chemical substance/The level of expressed mRNA in the absence of chemical substance (yeast gene YBR126C): 1.5
- The level of expressed mRNA in the presence of chemical substance/The level of expressed mRNA in the absence of chemical substance (yeast gene YBR169C): 1.3
- The level of expressed mRNA in the presence of chemical substance/The level of expressed mRNA in the absence of chemical substance (yeast gene YCL035C): 2.6
- The level of expressed mRNA in the presence of chemical substance/The level of expressed mRNA in the absence of chemical substance (yeast gene YCR021C): 0.7
- The level of expressed mRNA in the presence of chemical substance/The level of expressed mRNA in the absence of chemical substance (yeast gene YCR060W): 1.2
- The level of expressed mRNA in the presence of chemical substance/The level of expressed mRNA in the absence of chemical substance (yeast gene YCR083W): 1.3
- The level of expressed mRNA in the presence of chemical substance/The level of expressed mRNA in the absence of chemical substance (yeast gene YDL022W): 1.0
- The level of expressed mRNA in the presence of chemical substance/The level of expressed mRNA in the absence of chemical substance (yeast gene YDL025C): 1.0
- The level of expressed mRNA in the presence of chemical substance/The level of expressed mRNA in the absence of chemical substance (yeast gene YDR033W): 0.7
- The level of expressed mRNA in the presence of chemical substance/The level of expressed mRNA in the absence of chemical substance (yeast gene YDR077W): 1.4
- The level of expressed mRNA in the presence of chemical substance/The level of expressed mRNA in the absence of chemical substance (yeast gene YDR098C): 1.0
- The level of expressed mRNA in the presence of chemical substance/The level of expressed mRNA in the absence of chemical substance (yeast gene YDR155C): 1.2
- The level of expressed mRNA in the presence of chemical substance/The level of expressed mRNA in the absence of chemical substance (yeast gene YDR258C): 1.3
- The level of expressed mRNA in the presence of chemical substance/The level of expressed mRNA in the absence of chemical substance (yeast gene YDR293C): 1.4
- The level of expressed mRNA in the presence of chemical substance/The level of expressed mRNA in the absence of chemical substance (yeast gene YDR436W): 0.9
- The level of expressed mRNA in the presence of chemical substance/The level of expressed mRNA in the absence of chemical substance (yeast gene YDR513W): 1.3
- The level of expressed mRNA in the presence of chemical substance/The level of expressed mRNA in the absence of chemical substance (yeast gene YDR519W): 1.8
- The level of expressed mRNA in the presence of chemical substance/The level of expressed mRNA in the absence of chemical substance (yeast gene YEL030W): 0.9
- The level of expressed mRNA in the presence of chemical substance/The level of expressed mRNA in the absence of chemical substance (yeast gene YEL039C): 0.7
- The level of expressed mRNA in the presence of chemical substance/The level of expressed mRNA in the absence of chemical substance (yeast gene YER042W): 0.7
- The level of expressed mRNA in the presence of chemical substance/The level of expressed mRNA in the absence of chemical substance (yeast gene YER057C): 1.1
- The level of expressed mRNA in the presence of chemical substance/The level of expressed mRNA in the absence of chemical substance (yeast gene YER103W): 1.4
- The level of expressed mRNA in the presence of chemical substance/The level of expressed mRNA in the absence of chemical substance (yeast gene YER125W): 1.0
- The level of expressed mRNA in the presence of chemical substance/The level of expressed mRNA in the absence of chemical substance (yeast gene YFL014W): 1.5
- The level of expressed mRNA in the presence of chemical substance/The level of expressed mRNA in the absence of chemical substance (yeast gene YFL016C): 1.2
- The level of expressed mRNA in the presence of chemical substance/The level of expressed mRNA in the absence of chemical substance (yeast gene YFL020C): 1.5
- The level of expressed mRNA in the presence of chemical substance/The level of expressed mRNA in the absence of chemical substance (yeast gene YFR052W): 1.2
- The level of expressed mRNA in the presence of chemical substance/The level of expressed mRNA in the absence of chemical substance (yeast gene YGL073W): 2.5
- The level of expressed mRNA in the presence of chemical substance/The level of expressed mRNA in the absence of chemical substance (yeast gene YGL115W): 0.8
- The level of expressed mRNA in the presence of chemical substance/The level of expressed mRNA in the absence of chemical substance (yeast gene YGL181W): 1.0
- The level of expressed mRNA in the presence of chemical substance/The level of expressed mRNA in the absence of chemical substance (yeast gene YGR088W): 0.9
- The level of expressed mRNA in the presence of chemical substance/The level of expressed mRNA in the absence of chemical substance (yeast gene YHL028W): 1.6
- The level of expressed mRNA in the presence of chemical substance/The level of expressed mRNA in the absence of chemical substance (yeast gene YHL046C): 0.9
- The level of expressed mRNA in the presence of chemical substance/The level of expressed mRNA in the absence of chemical substance (yeast gene YHR030C): 2.0
- The level of expressed mRNA in the presence of chemical substance/The level of expressed mRNA in the absence of chemical substance (yeast gene YHR057C): 1.6
- The level of expressed mRNA in the presence of chemical substance/The level of expressed mRNA in the absence of chemical substance (yeast gene YHR104W): 1.9
- The level of expressed mRNA in the presence of chemical substance/The level of expressed mRNA in the absence of chemical substance (yeast gene YIL011W): 0.8
